Assay results taken from US20220064196A1, “EGFR Inhibitors, Compositions and Methods Thereof” (Betta Pharmaceuticals Co., Ltd., priority 2019, published 2022).
Read-outs that look alike come from different tables or passages of the source.

How the values were obtained:
Ba/F3-Del19/T790M/C797S = Ba/F3-Del19/T790M/C797S (Homo sapiens, UniProt P00533, T790M/C797S, cells depend on it, form not given); test: Ba/F3-Del19/T790M/C797S cells proliferation assay (CellTiter Glo); assay type: cell-based; conditions: cell proliferation, 72 h, read-out: Ba/F3-Del19/T790M/C797S IC50
Procedure: (§1) a) The medium was preheated in a 37°0 C. water bath in advance.
(§2) b) Remove the cryogenic vials from the liquid nitrogen tank, quickly put it into a 37° C. water bath, and completely melt it in 1 min.
(§3) c) Transfer the cell suspension to a 15 mL centrifuge tube containing 8 mL medium, centrifuge 1000 rpm, 5 min.
(§4) d) Discard the supernatant, resuspend the cells in 1 mL medium, and transfer to a 75 cm^2 flask containing 15 mL medium, culture the cells in an incubator at 37° C., 5% CO2.
(§5) a) The medium was preheated in a 37° C. water bath in advance.
(§6) b) Collect cell to a 15 mL centrifuged tube, centrifuge at 1000 rpm for 5 min. Discard the supernatant, count, and make the cell density at 1×10^4 cells/mL, then place it in a 37° C., 5% CO2 incubator.
(§7) a) The test compound (20 mM stock solution) was diluted to 200uM with 100% DMSO as starting concentration then 3-fold serial diluted with “9+0” concentrations. in a 96-well dilution plate (Cat # P-05525, Labcyte);
(§8) b) The above compound solution was diluted 1:20 times with culture medium to prepare a 10 fold working solution;
(§9) a) Take cells in log phase growth, centrifuge at 1000 rpm for 5 min, then resuspend the cells with culture medium, then count cells;
(§10) b) Cells were seeded to 96-well cell culture plate with density at 2000 cells/well;
(§11) a) Compounds prepared at step 2 were added to cell plate with 15 μL per well, the final concentrations were 1000,333, 111.1, 37,12.3, 4.1, 1.4, 0.5, 0.2 and 0 nM, and the final concentration of DMSO was 0.5%. The blank control well was a culture medium (0.5% DMSO);
(§12) b) The cells were incubated for an additional 72 h in the incubator.
(§13) a) Remove the 96-well cell culture plate and add 50 μl of CTG reagent (CellTiter Glo kit, promega, Cat # G7573).
(§14) b) Plate was shaked for 2 min and then let it cool for 10 min at room temperature.
(§15) c) The Luminescence signal value was read using a PerkinElmer reader. Experimental data analysis
(§16) Data were analyzed using GraphPad Prism 6.0 software to obtain a fitted curve of compound activity.
(§17) Fit the Compound IC50 from non-linear regression equation:
(§18) Y=Bottom+(Top-Bottom)/(1+10((LogIC50-X)×Hill Slope));
(§19) X: The log of the concentration of the compound; Y: Luminescence value.
(§20) The cells proliferation assay results are expressed with IC50, shown as Table 2.

EGFR L858R/T790M/C797S = EGFR L858R/T790M/C797S (Homo sapiens, UniProt P00533, C797S/L858R/T790M); test: Kinase assay (mobility shift), EGFR L858R/T790M/C797S; assay type: biochemical; conditions: numeric values
Sequence of EGFR L858R/T790M/C797S (P00533 25-1210 T790M/C797S/L858R): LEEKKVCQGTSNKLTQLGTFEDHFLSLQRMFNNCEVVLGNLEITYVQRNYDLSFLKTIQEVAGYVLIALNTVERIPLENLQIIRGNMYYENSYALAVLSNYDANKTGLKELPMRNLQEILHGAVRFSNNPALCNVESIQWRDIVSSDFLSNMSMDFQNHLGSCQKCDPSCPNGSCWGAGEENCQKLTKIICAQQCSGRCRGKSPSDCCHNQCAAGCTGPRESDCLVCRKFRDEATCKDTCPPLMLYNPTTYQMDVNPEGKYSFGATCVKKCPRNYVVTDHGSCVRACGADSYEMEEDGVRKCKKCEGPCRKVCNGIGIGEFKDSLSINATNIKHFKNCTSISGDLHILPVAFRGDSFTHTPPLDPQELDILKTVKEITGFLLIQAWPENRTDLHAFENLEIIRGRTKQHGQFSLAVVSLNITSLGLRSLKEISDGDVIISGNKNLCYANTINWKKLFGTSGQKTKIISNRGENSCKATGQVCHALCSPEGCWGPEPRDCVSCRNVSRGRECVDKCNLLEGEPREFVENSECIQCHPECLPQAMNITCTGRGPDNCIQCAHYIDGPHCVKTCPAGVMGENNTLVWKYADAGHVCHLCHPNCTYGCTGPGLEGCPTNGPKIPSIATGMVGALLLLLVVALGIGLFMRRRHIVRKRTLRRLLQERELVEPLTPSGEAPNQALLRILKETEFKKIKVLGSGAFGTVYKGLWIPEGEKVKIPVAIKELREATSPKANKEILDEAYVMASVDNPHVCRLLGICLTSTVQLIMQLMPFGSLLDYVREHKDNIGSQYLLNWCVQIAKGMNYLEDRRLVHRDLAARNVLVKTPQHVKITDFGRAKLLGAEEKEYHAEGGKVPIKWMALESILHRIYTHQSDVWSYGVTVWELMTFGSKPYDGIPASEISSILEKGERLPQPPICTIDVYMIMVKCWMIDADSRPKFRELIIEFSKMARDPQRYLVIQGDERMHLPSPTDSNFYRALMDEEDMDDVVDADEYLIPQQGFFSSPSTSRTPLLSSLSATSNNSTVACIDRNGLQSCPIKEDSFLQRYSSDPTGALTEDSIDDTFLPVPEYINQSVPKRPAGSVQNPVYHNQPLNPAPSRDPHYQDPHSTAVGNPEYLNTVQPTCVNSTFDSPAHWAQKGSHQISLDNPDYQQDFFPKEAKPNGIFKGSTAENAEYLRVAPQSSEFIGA
Procedure: [Worded in the source for another variant; this variant is reported under the same test.] (§21) Test 1 Kinase Assay for EGFR Del19/T790M/C797S and EGFR Wildtype
(§22) Enzyme reaction protocol are as follows:
(§23) 1. Preparing 1* Kinase buffer as followed.
(§24) 2. Preparing Compound Concentration Gradient: Compounds were tested at a concentration of 300 nM, diluted to 100-fold final concentration in 100% DMSO solution in 96-well plates, and compounds were diluted 3 times with Precision, 10 concentrations. Each concentration of the compound was then further diluted to a 5-fold final concentration of the intermediate dilution solution using 1* Kinase buffer.
(§25) 3.5 μL of each of the prepared intermediate dilution compounds was separately added to the compound wells of the 384-well plate, and each concentration was tested for duplicate wells; 5 μL of 5% DMSO was added to the negative control wells and the positive control wells, respectively.
(§26) 4. 2.5-fold final concentration of the kinase solution was prepared using 1*Kinase buffer.
(§27) 5. Add 10 μL of 2.5-fold final concentration of kinase solution to the compound well and positive control well; add 10 μL of 1*Kinase buffer to the negative control well.
(§28) 6. Centrifuge at 1000 rpm for 30 seconds, shake the reaction plate and incubate for 10 minutes at room temperature.
(§29) 7. A mixed solution of 2.5 times the final concentration of ATP and Kinase substrate (5-FAM-EEPLYWSFPAKKK-CONH2) was prepared using 1*Kinase buffer.
(§30) 8. 10 μL of a 2.5-fold final concentration of a mixed solution of ATP and a substrate was added to initiate the reaction.
(§31) 9. Centrifuge the 384-well plate at 1000 rpm for 30 seconds, mix by shaking, and incubate at room temperature for the corresponding time.
(§32) 10. Add 30 μL of the stop solution to stop the kinase reaction, centrifuge at 1000 rpm for 30 seconds, and mix by shaking.
(§33) 11. Read the conversion rate with Caliper EZ Reader.
(§34) Convert conversion values to inhibition values:
(§35) Percent inhibition 32 (max-conversion)/(max-min)*100.
(§36) “max” stands for the mean value of the positive control well ratio; “min” stands for the mean value of the negative control well.
(§37) Fit the data in log(inhibitor) vs. response Variable slope of GraphPad Prism 5 to obtain IC50 values.
(§38) Equation used is: Y=Bottom+(Top-Bottom)/(1+(IC50/X)^HillSlope)

A431 (WT) = test: A431 cells proliferation assay (CellTiter Glo); assay type: cell-based; conditions: Homo sapiens, A-431; cell proliferation, 72 h
Procedure: Test 4 A431 Cells Proliferation Assay
DMEM and 10% FBS and 1% PS.
as §5, §2, §3, §4, §6
a) The test compound (20 mM stock solution) was diluted to 2 mM with 100% DMSO as starting concentration then 3-fold serial diluted with “9+0” concentrations. in a 96-well dilution plate (Cat # P-05525, Labcyte);
b) The above compound solution was diluted 1:40 times with culture medium to prepare a 5 fold working solution;
as §9
b) Cells were seeded to 96-well cell culture plate with density at 5000 cells/well;
a) Compounds prepared at step 2 were added to cell plate with 40 μL per well, the final concentrations were 10000, 3333,1111.1, 370.4, 123.5, 41.2, 13.7, 4.6, 1.5 and 0 nM, and the final concentration of DMSO was 0.5%. The blank control well was a culture medium (0.5% DMSO);
as §12
a) Remove the 96-well cell culture plate and add 60 μl of CTG reagent (CellTiter Glo kit, promega, Cat # G7573).
as §14
c) The Luminescence signal value was read using a PerkinElmer reader.
Experimental Data Analysis
as §16, §17
Y=Bottom+(Top-Bottom)/(1+10((LogIC50-X)×HillSlope));
as §19
The cells proliferation assay results are expressed with IC50, shown as Table 3.

Ba/F3-L858R/T790M/C797S = Ba/F3-L858R/T790M/C797S (Homo sapiens, UniProt P00533, T790M/C797S/L858R, cells depend on it); test: Ba/F3-L858R/T790M/C797S cells proliferation assay (CellTiter Glo); assay type: cell-based; conditions: cell proliferation, 72 h, read-out: Ba/F3-L858R/T790M/C797S IC50
Sequence of Ba/F3-L858R/T790M/C797S (P00533 whole entry T790M/C797S/L858R): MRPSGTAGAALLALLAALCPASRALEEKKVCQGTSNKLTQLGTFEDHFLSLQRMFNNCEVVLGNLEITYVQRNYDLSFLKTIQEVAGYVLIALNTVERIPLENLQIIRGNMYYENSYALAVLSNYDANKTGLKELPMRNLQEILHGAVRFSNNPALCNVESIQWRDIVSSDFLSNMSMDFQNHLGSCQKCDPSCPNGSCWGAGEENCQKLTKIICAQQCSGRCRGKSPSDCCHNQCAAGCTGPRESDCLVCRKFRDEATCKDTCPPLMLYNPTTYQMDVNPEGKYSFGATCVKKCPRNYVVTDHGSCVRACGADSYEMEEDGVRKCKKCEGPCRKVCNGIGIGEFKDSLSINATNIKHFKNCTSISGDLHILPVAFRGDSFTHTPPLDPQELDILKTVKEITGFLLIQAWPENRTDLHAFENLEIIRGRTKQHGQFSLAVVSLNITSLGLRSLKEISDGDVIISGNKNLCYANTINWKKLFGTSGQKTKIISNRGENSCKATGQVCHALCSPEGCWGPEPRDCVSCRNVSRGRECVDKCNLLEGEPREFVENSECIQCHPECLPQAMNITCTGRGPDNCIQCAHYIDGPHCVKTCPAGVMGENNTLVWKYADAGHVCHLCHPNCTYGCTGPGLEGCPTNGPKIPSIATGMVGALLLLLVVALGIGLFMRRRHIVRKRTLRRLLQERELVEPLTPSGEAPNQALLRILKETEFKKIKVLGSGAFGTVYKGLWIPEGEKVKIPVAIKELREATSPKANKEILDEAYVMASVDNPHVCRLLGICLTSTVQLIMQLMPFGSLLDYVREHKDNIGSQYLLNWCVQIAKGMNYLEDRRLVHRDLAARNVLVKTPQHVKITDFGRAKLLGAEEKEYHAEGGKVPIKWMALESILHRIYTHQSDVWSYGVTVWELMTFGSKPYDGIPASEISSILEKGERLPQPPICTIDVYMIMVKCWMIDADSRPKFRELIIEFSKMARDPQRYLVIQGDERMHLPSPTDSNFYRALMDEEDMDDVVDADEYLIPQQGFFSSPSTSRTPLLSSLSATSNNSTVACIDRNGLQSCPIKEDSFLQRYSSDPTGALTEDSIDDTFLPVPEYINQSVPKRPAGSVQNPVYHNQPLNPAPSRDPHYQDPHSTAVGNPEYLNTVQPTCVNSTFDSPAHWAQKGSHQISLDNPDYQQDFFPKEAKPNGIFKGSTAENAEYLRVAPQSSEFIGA
Procedure: as §1, §2, §3, §4, §5, §6, §7, §8, §9, §10, §11, §12, §13, §14, §15, §16, §17, §18, §19, §20

EGFR WT = EGFR WT (Homo sapiens, UniProt P00533); test: Kinase assay (mobility shift), EGFR wildtype; assay type: biochemical; conditions: top concentration 300 nM
Sequence of EGFR WT (P00533 25-1210): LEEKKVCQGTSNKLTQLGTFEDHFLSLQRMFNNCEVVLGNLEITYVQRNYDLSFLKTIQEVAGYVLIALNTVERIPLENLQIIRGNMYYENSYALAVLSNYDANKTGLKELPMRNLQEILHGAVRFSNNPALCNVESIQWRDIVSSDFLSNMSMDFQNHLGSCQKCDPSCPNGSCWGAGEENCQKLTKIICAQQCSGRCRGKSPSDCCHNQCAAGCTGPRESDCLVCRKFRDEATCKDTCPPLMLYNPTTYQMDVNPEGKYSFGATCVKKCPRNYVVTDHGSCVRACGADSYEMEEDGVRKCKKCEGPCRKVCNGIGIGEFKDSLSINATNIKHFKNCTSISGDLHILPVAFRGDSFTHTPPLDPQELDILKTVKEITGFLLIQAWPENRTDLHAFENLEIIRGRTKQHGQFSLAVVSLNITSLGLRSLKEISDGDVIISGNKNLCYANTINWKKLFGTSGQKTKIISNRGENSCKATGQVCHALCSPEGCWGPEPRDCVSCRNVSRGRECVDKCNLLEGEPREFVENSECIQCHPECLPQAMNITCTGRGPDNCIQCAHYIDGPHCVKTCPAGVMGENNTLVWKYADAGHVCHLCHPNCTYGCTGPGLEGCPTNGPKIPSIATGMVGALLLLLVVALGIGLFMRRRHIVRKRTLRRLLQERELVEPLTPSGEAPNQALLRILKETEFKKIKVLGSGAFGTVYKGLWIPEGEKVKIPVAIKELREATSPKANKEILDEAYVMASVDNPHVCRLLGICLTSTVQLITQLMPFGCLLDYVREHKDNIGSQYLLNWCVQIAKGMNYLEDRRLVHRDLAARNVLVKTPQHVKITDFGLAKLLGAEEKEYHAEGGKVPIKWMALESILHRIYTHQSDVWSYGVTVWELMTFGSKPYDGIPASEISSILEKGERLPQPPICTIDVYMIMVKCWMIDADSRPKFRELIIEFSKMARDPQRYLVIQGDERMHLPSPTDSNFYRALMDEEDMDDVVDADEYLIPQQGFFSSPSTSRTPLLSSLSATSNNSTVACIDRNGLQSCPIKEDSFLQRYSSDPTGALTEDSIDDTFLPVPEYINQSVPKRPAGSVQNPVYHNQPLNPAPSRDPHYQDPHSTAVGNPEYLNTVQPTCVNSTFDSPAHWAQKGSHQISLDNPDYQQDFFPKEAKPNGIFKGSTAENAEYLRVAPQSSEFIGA
Procedure: as §21, §22, §23, §24, §25, §26, §27, §28, §29, §30, §31, §32, §33, §34, §35, §36, §37, §38

EGFR Del19/T790M/C797S = EGFR Del19/T790M/C797S (Homo sapiens, UniProt P00533, T790M/C797S, form not given); test: Kinase assay (mobility shift), EGFR Del19/T790M/C797S; assay type: biochemical
Sequence of EGFR Del19/T790M/C797S (P00533 with tags, fused parts or gaps DEL746-750/T790M/C797S, form open): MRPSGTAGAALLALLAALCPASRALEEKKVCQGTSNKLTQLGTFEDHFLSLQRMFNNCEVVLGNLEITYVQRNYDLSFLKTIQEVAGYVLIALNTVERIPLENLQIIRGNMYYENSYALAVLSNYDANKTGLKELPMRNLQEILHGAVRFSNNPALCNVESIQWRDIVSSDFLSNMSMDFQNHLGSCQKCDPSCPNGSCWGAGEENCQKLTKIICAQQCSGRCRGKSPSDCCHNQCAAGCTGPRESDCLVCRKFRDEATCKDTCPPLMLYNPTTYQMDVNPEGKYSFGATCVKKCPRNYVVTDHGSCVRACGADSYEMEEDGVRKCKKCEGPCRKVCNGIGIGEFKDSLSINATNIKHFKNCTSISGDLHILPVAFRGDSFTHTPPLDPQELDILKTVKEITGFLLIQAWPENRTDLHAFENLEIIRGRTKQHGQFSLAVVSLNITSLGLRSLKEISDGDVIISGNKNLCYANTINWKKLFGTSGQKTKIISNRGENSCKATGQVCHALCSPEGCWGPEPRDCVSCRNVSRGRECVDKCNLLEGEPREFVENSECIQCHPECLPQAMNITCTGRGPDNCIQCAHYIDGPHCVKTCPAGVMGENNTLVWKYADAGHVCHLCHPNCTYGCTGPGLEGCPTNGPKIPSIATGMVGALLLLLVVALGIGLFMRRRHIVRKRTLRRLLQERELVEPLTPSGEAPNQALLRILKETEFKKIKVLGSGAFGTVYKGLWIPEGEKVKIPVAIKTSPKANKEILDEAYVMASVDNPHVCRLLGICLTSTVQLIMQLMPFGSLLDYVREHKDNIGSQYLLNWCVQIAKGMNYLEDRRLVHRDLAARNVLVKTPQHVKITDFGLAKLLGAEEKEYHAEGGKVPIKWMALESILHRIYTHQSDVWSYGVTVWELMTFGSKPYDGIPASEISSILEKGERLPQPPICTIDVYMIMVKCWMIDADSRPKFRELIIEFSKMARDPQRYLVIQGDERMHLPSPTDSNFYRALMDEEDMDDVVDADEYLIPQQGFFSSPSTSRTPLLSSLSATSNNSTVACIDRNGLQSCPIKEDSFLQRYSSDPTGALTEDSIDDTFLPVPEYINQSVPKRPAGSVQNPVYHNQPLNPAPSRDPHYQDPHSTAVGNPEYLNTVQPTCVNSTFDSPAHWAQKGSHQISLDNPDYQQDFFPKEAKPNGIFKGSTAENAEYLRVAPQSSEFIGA
Procedure: as §21, §22, §23, §24, §25, §26, §27, §28, §29, §30, §31, §32, §33, §34, §35, §36, §37, §38

[1] = Pharmacokinetic assay, oral administration; assay type: in vivo; conditions: rat, male SD rats, p.o. 5 mg/kg, plasma, formulation differs per row
Procedure: Test 5 Pharmacokinetic Assay
Male SD rats, oral administration (intragastric administration), 3 in each group. Animals administered by gavage were fasted overnight before the experiment, and the fasting time was from at least 12 hours before administration to 4 hours after administration. The blood was collected using the orbital vein. Time of blood collection by oral administration: 15 min, 30 min, 1 h, 2 h, 4 h, 7 h, 24 h. The blood collection volume was 300 uL, and after anticoagulation with 2.0% EDTA, the blood was centrifuged at 4000 rpm for 5 min, and the blood plasma was taken for about 100 uL, and placed in −20° C. for examination. The plasma sample was analyzed using liquid chromatography tandem mass spectrometry (LC-MS/MS). Plasma concentration-time data for individual animals were analyzed using WinNonlin (V4.1, Pharsight) software with a non-compartmental model and the pharmacokinetic parameters of the test compounds were calculated.

GI50 (Ba/F3-Del19/T790M/C797S; class symbols) [nM]	IC50 (EGFR L858R/T790M/C797S) [nM]	IC50 (A431 (WT)) [nM]	GI50 (Ba/F3-L858R/T790M/C797S; class symbols) [nM]	IC50 (EGFR WT) [nM]	IC50 (EGFR Del19/T790M/C797S) [nM]	GI50 (Ba/F3-Del19/T790M/C797S; numeric values) [nM]	GI50 (Ba/F3-L858R/T790M/C797S; numeric values) [nM]	Compound	AUC(0-t) [1] [ng·h/mL]	Cmax [1] [ng/mL]	Tmax [1] [h]	half-life [1] [h]
10 to 50	4.5	349	10 to 50	> 300				CN(C)C1CC2(CCN(c3ccc(Nc4ncc(Cl)c(Nc5ccccc5P(C)(C)=O)n4)cc3C(F)(F)F)CC2)C1 [Example 19, (2-((5-chloro-2-((4-(2-(dimethylamino)-7-azaspiro[3.5]nonan-7-yl)-3-(trifluoromethyl)phenyl)amino)pyrimidin-4-yl)amino)phenyl)dimethylphosphine oxide]				
≤ 10		35	≤ 10		0.7			CN(C)C1CC2(CCN(c3ccc(Nc4ncc(Cl)c(Nc5ccccc5P(C)(C)=O)n4)cc3)CC2)C1 [Example 17, (2-((5-chloro-2-((4-(2-(dimethylamino)-7-azaspiro[3.5]nonan-7-yl)phenyl)amino)pyrimidin-4-yl)amino)phenyl)dimethylphosphine oxide]				
	1.6	95.5		35		16.9	32.9	CP(C)(=O)c1ccccc1Nc1nc(Nc2ccc(N3CCC4(CC3)CC(N)C4)c(F)c2)ncc1Cl [Example 29, (2-((2-((4-(2-amino-7-azaspiro[3.5]nonan-7-yl)-3-fluorophenyl)amino)-5-chloropyrimidin-4-yl)amino)phenyl)dimethylphosphine oxide]				
		53			0.53	14.7	21.7	CN(C)[C@@H]1CCN(C2CC3(CCN(c4ccc(Nc5ncc(Cl)c(Nc6ccccc6P(C)(C)=O)n5)cc4Cl)CC3)C2)C1 [Example 34, (R)-(2-((5-chloro-2-((3-chloro-4-(2-(3-(dimethylamino)pyrrolidin-1-yl)-7-azaspiro[3.5]nonan-7-yl)phenyl)amino)pyrimidin-4-yl)amino)phenyl)dimethylphosphine oxide]				
≤ 10	1.3	41.6	≤ 10		0.6			CN(C)C1CCC2(CC1)CN(c1ccc(Nc3ncc(Cl)c(Nc4ccccc4P(C)(C)=O)n3)cc1)C2 [Example 13, (2-((5-chloro-2-((4-(7-(dimethylamino)-2-azaspiro[3.5]nonan-2-yl)phenyl)amino)pyrimidin-4-yl)amino)phenyl)dimethylphosphine oxide]				
		47			0.4	9.7	11.7	CP(C)(=O)c1ccccc1Nc1nc(Nc2ccc(N3CCC4(CC3)CC(N3CCCC3)C4)c(Cl)c2)ncc1Cl [Example 33, (2-((5-chloro-2-((3-chloro-4-(2-(pyrrolidin-1-yl)-7-azaspiro[3.5]nonan-7-yl)phenyl)amino)pyrimidin-4-yl)amino)phenyl)dimethylphosphine oxide]				

Further lines, the compound ahead of its results:

Compound	GI50 (Ba/F3-Del19/T790M/C797S; class symbols) [nM]	IC50 (EGFR L858R/T790M/C797S) [nM]	IC50 (A431 (WT)) [nM]	GI50 (Ba/F3-L858R/T790M/C797S; class symbols) [nM]	IC50 (EGFR WT) [nM]	IC50 (EGFR Del19/T790M/C797S) [nM]	GI50 (Ba/F3-Del19/T790M/C797S; numeric values) [nM]	GI50 (Ba/F3-L858R/T790M/C797S; numeric values) [nM]	AUC(0-t) [1] [ng·h/mL]	Cmax [1] [ng/mL]	Tmax [1] [h]	half-life [1] [h]
CP(C)(=O)c1ccccc1Nc1nc(Nc2ccc(N3CC4(CCC(NCCO)CC4)C3)c(Cl)c2)ncc1Cl [Example 12, (2-((5-chloro-2-((3-chloro-4-(7-((2-hydroxyethyl)amino)-2-azaspiro[3.5]nonan-2-yl)phenyl)amino)pyrimidin-4-yl)amino)phenyl)dimethylphosphine oxide]			121	10 to 50		1	24.4					
CN(C)C1CC2(CCN(c3ccc(Nc4ncc(Cl)c(Nc5ccccc5P(C)(C)=O)n4)cc3Cl)CC2)C1 [Example 6, (2-((5-chloro-2-((3-chloro-4-(2-(dimethylamino)-7-azaspiro[3.5]nonan-7-yl)phenyl)amino)pyrimidin-4-yl)amino)phenyl)dimethylphosphine oxide]	10 to 50	1.3	44.7	10 to 50		0.37			8810	741	4	3
Cc1cc(Nc2nc(Nc3ccccc3P(C)(C)=O)c3nc[nH]c3n2)ccc1N1CCC2(CC1)CC(N)C2 [Example 21, (2-((2-((4-(2-amino-7-azaspiro[3.5]nonan-7-yl)-3-methylphenyl)amino)-9H-purin-6-yl)amino)phenyl)dimethylphosphine oxide]	> 50	0.9	367	> 50	20							
CP(C)(=O)c1ccccc1Nc1nc(Nc2ccc(N3CCC4(CC3)CC(N)C4)c(Cl)c2)ncc1Cl [Example 8, (2-((2-((4-(2-amino-7-azaspiro[3.5]nonan-7-yl)-3-chlorophenyl)amino)-5-chloropyrimidin-4-yl)amino)phenyl)dimethylphosphine oxide]		1.6	57.5			0.58	21.5	17.3	2820	388	2.08	3.17
